Like-named read-outs stand apart in the source and are kept apart here.
Target: T1, TLR9 (Homo sapiens, UniProt Q9NR96)
T1 construct: expressed in transfected cells; host or cells: NIH 3T3 fibroblasts (mouse), stably transfected, NF-kB driven SEAP reporter
T1 sequence (Q9NR96 26-1032): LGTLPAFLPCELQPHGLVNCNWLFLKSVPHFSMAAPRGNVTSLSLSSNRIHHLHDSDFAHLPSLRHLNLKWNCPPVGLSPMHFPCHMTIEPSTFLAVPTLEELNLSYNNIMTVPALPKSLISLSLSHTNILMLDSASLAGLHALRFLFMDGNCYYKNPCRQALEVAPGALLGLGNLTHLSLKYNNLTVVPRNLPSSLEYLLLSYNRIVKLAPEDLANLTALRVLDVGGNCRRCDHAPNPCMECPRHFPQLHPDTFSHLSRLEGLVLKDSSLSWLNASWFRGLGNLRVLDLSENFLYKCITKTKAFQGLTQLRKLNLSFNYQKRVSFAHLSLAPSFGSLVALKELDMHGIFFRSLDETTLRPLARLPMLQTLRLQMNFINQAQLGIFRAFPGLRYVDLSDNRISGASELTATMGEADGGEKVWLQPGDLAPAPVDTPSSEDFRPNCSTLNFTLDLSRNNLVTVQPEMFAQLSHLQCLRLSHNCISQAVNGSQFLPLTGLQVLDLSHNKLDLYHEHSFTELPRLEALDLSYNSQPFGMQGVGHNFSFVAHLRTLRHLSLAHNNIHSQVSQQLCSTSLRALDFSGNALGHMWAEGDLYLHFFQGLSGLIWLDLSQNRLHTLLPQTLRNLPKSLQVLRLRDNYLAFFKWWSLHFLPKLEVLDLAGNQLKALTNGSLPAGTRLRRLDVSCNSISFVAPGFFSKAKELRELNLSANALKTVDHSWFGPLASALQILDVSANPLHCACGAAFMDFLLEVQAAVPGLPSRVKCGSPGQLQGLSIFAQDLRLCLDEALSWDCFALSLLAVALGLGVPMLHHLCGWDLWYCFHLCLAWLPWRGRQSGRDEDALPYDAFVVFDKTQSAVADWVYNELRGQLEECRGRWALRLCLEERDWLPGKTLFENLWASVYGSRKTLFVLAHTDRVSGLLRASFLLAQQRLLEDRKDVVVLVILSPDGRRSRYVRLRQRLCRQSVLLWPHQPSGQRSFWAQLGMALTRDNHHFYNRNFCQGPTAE
Test: cell-based reporter assay (NIH 3T3 reporter cell line expressing TLR9, NF-kB driven SEAP, stimulated with CpG ODN 2216)
Details: read-out: IC50 in
Method: In context with the present invention, the ‘IC50 value’ is the half maximum inhibitory concentration which is a measure of the effectiveness of a substance inhibiting the function of the TLR9. The IC50 value can be determined by a functional antagonist assay or a competition binding assay. Preferably, the IC50 value is determined by the cell-based reporter assay in section 3, below, of the examples.
A cell based test-system that allows PAMPs to be identified and differentiated via pattern recognition receptors (PRRs) in a reporter gene assay was used (DE 10 2006 031 483, EP 2 041 172). For this assay human PRRs and co-receptors were stably transfected and expressed in NIH 3T3 fibroblasts. This cell line expresses no other PRRs and contains a reporter gene which is activated by PRR-activation. The induction of receptor complexes by their ligands leads, after a signalling cascade, to an activation of transcription factor NF-kB, which regulates the expression of an additional integrated reporter gene, a secreted alkaline phosphatase (SEAP) (Burger-Kentischer, A.; Abele, I. S.; Finkelmeier, D.; Wiesmüller, K.-H.; Rupp, S., A new cell-based innate immune receptor assay for the examination of receptor activity, ligand specificity, signalling pathways and the detection of pyrogens. J. Immunol. Methods 2010, 358 (1), 93-103).
This test system mimics elements of the innate human immune system and can selectively recognize a large number of PAMPs with high sensitivity. Consequently, the PRR-specific cell-based high-throughput feature of the reporter cell lines will provide a fast, flexible and convenient means for lead compound screening in the pharmaceutical drug development fields. For the in vitro screening of the top candidates identified at IDR, the Fraunhofer IGB used this cell-based reporter system to identify TLR9 antagonists in order to determine their activity as well their biocompatibility. Within a first step the NIH3T3 cell line expressing TLR9 was used to measure the inhibitory effect of the TLR9 antagonists.
For the experiment the reporter cell line expressing TL9 was plated in 96-well cell culture plates at a density of 0.3×10^5 cells in DMEM media supplemented with 10% FCS (Invitrogen), 1% L-glutamine (200 mM Invitrogen) and 1% Penicillin-Streptomycin (PenStrep: 100×, Invitrogen). The cells were incubated for 16 h to grow adherent monolayers at 37° C. in a 5% saturated CO2 humidified atmosphere. After overnight incubation, the media was removed and replaced by DMEM medium supplemented with 1% PenStrep, 1% L-glutamine and 0.5% FCS. The media change is important to avoid a unspecific background signal, caused by active remaining phosphatases present in the FCS. The cells are then stimulated with a specific ligand non-methylated CpG ODN 2216 agonist (Invivogen) and the potential antagonists using different concentrations, namely within a range of concentrations of the potential antagonists starting with 0.025 μM (for the antagonist with the highest activity) up to 14 mM for the antagonists with lowest activities.
The ODN ligand has the sequence 5′-ggGGGACGA:TCGTCgggggg-3′ (SEQ ID No. 1). Those represented by capital letters are phosphodiesters, and those in small letters are phosphorothioate. The Palindrome is underlined.
The cells were again incubated in a humidified atmosphere for 16h leading to the expression or reduced expression of SEAP and its secretion into the media. Binding of the antagonist leads to a block of the TLR9, resulting in no or in a reduced expression of the reporter gene (SEAP). Therefore, 50 μl supernatant were taken from the cells and transferred into a 96-well PS microplate flat bottom (Greiner BIO-ONE). The enzyme substrate reaction was initiated by adding 50 μl of the specific substrate. SEAP catalyses the hydrolysis of pNPP to the final product para-nitrophenol (yellow), which can be detected in a photometric analysis using an UV-VIS reader at 405 nm. […]

[1] = Table 5, first 30 candidates, ODN 2216 agonist, n≥3

| IC50 (in the presence of 5 μM of the ODN 2216 agonist) | Structure (SMILES) | IC50 [1] |
| --- | --- | --- |
|  | COc1ccc(OCCN(C)c2ncnc3c2oc2ccccc23)cc1 [T6593995, o1c2c(ncnc2N(CCOc2ccc(OC)cc2)C)c2c1cccc2] | 905 µM |
| 6.78 µM | COc1ccc(CNc2nc3ccccc3n2CCN2CCCCC2)cc1OC [T0503-2983] |  |
|  | COc1cc(/C=C/c2ccc3ccccc3n2)cc(OC)c1 [T5702130, O(C)c1cc(cc(OC)c1)\C═C\c1nc2c(cc1)cccc2] | 7.27 µM |
|  | c1ccc(-c2cn3c(n2)CCc2ccc4cccnc4c2-3)cc1 [T0502-6934, n1c2n(cc1-c1ccccc1)-c1c(CC2)ccc2c1nccc2] | 13200 µM |
